Test results as given in PMC5555576, “Selective small-chemical inhibitors of protein arginine methyltransferase 5 with anti-lung cancer activity” (PLoS ONE, 2017).
“And” between values parts separate entries of the source, which are not always exact repeats. Equal values may be shown once. Read-outs that look alike come from different tables or passages of the source.

What was measured:
PRMT5 = target: T1, PRMT5 (Homo sapiens, UniProt O14744); assay: Radioactive methyltransferase assay, PRMT5; format: biochemical
T1 construct: His6; made in house; host or cells: E. coli BL21(ED3) [sic]
T1 sequence (O14744 whole entry): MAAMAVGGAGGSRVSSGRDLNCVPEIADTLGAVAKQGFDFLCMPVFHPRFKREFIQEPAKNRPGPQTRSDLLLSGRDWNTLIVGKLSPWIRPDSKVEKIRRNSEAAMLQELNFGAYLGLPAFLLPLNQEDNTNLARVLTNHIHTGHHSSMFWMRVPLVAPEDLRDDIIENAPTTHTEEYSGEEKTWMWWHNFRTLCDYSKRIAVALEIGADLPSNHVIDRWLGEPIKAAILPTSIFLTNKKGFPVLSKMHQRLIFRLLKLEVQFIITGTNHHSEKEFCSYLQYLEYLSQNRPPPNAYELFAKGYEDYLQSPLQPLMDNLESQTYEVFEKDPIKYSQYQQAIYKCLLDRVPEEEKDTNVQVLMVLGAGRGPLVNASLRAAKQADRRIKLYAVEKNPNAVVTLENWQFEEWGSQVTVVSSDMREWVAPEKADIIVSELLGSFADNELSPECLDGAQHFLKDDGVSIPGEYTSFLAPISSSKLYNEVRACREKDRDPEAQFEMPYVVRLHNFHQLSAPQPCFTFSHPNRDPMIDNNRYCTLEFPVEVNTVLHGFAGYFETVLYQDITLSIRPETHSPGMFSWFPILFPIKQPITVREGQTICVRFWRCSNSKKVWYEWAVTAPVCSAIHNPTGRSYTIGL
Method: Methylation reactions were performed as previously described with a few modifications. Reaction mixtures (40 μl) containing 1.2 μg of PRMT5, 98 ng of PRMT1 or 98 ng of PRMT3; 2 μg of SmD3 or histones; 1 μCi of S-[methyl-^3H]adenosylmethionine (H^3-AdoMet; PerkinElmer); and 5 μM AdoMet were incubated in 50 mM Tris-HCl (pH 7.5)–1 mM EGTA–1 mM EDTA at 30°C for 2 h. Reaction mixtures (20 μl) were boiled in 5 μl of 5x SDS sample buffer and separated on a 15% polyacrylamide gel. Gels were fixed for 30 min in 40% methanol–10% acetic acid, incubated in 20 ml of Amplify (Amersham Life Science) for 10 min, dried and exposed to X-ray film at -80°C. IC50 was calculated by linear regression analysis of percent inhibition. The other half (20 μl) of each reaction mixture was spread onto DE81 chromatography paper discs (Whatman). The paper discs were washed 4 times with 50 mM NaHCO3 and dried. The amounts of methylated products were quantified by liquid scintillation.
In vitro methylation reactions were performed with recombinant PRMT5 (1.2 μg), PRMT1 ([…]) or PRMT3 (89 ng); [H^3]-AdoMet; and different substrates in the presence of identified compounds. […] The recombinant SmD3 (2 μg) was used as the substrate in the absence (lane 2) or presence of 1, 10 or 100 μM compounds as indicated. Reaction mixtures were separated on an SDS–15% polyacrylamide gel and the gel was dried under vacuum and exposed to film. […] Recombinant histones H4 or H2A (1 μg) were used as substrates of PRMT5 in the methylation assay in the absence or presence of 100 μM compounds as indicated. Reaction mixtures were spread onto DE81 chromatography paper discs. After a wash, the amounts of methylated products on discs were quantified by liquid scintillation. […] PRMT1 was incubated with purified histones (1 μg) or recombinant E2F1 (1 μg) as substrates in the absence (lane 2) or presence of 100 μM compounds as indicated. Reaction mixtures were separated on an SDS–15% polyacrylamide gel and the gel was dried and exposed to film.

A549 cells [1] = assay: BrdU incorporation assay; format: cell-based; settings: 20 μM, 2 days
Method: A549 cells were infected with the lentivirus expressing NT or PRMT5 shRNA. A549 cells were grown in the presence of DMSO or compound C5, C9 or C11 (20 μM) for 2 days. A, Bromodeoxyuridine (BrdU) (BD Biosciences) incorporation assay. Cells were plated on a Chamber slide (BD falcon) and cultured in the presence of 10 μM BrdU for 4 h. The BrdU-positive cells (brown) were detected by immunostaining with the monoclonal anti-BrdU antibody (BD Biosciences) and observed under a microscope. B, Percentage of BrdU-positive cells in control, PRMT5-silencing or compound treated cells. The results represent the means of three independent experiments ± the standard deviation. ***, P<0.001. (TIF) Click here for additional data file.

PC14 cells = assay: Cell growth by cell counting, PC14; format: cell-based; settings: 2 days post treatment
Method: Lung cancer A549 (ATCC) and PC14 (ATCC) cells were cultured in minimum essential medium (Cellgro) with 10% (v/v) fetal bovine serum (FBS) (HyClone), 2% vitamins, 1% L-glutamine, 1% non-essential amino acids and 1% sodium pyruvate. For the treatment with identified compounds, cells (2, 000 cells/well) were seeded in 24-well plates in the medium containing 2% FBS. The fresh medium containing identified compounds was added 24 hours later. Cells were cultured for various times in a CO2 incubator and the cell numbers were counted. Each experiment was performed in triplicate.
A, Lung cancer A549 cells were cultured in the presence of various concentrations (μM) of identified compounds and growth inhibition was determined by cell counting at various time points. B, Lung cancer PC14 cells were cultured in the presence of DMSO or various concentrations of identified compounds and growth inhibition was determined by cell counting 2 days post the compound treatment. C, The serum concentrations of compound C9 after oral administration. Mice were sacrificed and blood samples were collected immediately before (0 h) and at 2, 4, 6 and 8h after compound administration.

A549 cells [2] = assay: Cell cycle distribution by flow cytometry; format: cell-based; settings: 20 μM, 2 days
Method: Supplementary file pone.0181601.s002.tif: S2 Fig Identified compounds arrested cell cycle at the G1 phase. A549 cells were infected with the lentivirus expressing non-target (NT) or PRMT5 shRNA as described previously by us. A549 cells were grown in the presence of DMSO or 20 μM of the compound C5, C9 or C11 for 2 days. A, PRMT5 protein levels in A549 cells. Whole cell lysates were prepared and submitted for Western blot analysis with anti-PRMT5 (top) or anti-actin (bottom) antibody. B, Cell cycle distributions. Cells were harvested, washed with phosphate-buffered saline (PBS) and fixed in 70% ethanol at 4 °C overnight. Cells were collected and stained with propidium iodide (PI). The cell-cycle distributions were determined by flow cytometry analysis (BD Accuri^TM C6 Flow Cyometer). (TIF) Click here for additional data file.

[3] = methylation of SmD3 by PRMT5, Table 1 prints no unit, μM, read-out: IC50

Structure (SMILES) | IC50 (PRMT5; [3]) | cellular proliferation (BrdU) (A549 cells [1]) | PC14 cell growth inhibition (PC14 cells) | cell cycle effect (A549 cells [2]) | inhibition of PRMT5 activity compared to C9 (PRMT5; SmD3 substrate, 1, 10 or 100 μM) | IC50 (PRMT5; wild type PRMT5, SmD3 substrate, Fig 4D, read-out: IC50 (μM) PRMT5) [µM]
Cn1cc(C(c2ccc(O)c(O)c2O)c2cn(C)c3ccccc23)c2ccccc21 [Compound C11] | 0.3 µM | inhibited proliferation of lung cancer cells | inhibited PC14 cell growth | arrested the cell cycle at the G1 phase | – | –
Nc1cccc(Nc2ncnc3c2cnn3Cc2ccccc2)c1 [Compound C9a] | 0.7 µM | – | – | – | higher efficacy | –
CCn1c(=O)[nH]c2cc(C(=O)Nc3ccc(OC)cc3)ccc2c1=O [Compound C5] | 0.75 µM | inhibited proliferation of lung cancer cells | inhibited PC14 cell growth | arrested the cell cycle at the G1 phase | – | 0.8
COc1ccc(Nc2ncnc3c2cnn3Cc2ccc(C)cc2)cc1 [Compound C9] | ~6 µM and 6 µM | inhibited proliferation of lung cancer cells | inhibited PC14 cell growth | arrested the cell cycle at the G1 phase | – | –
